Values after ≈ are worked out from the molar mass of the structure shown.
test system: Mycobacterium tuberculosis; assay: Antitubercular activity against Mycobacterium tuberculosis H37Rv ATCC 27294 after 5 days by microplate alamar blue assay; assay type: functional; conditions: H37Rv ATCC 27294, 120 h

SMILES	MIC
O=C1NC(=O)/C(=C/c2c(-c3ccccc3)nc3sc(C(F)(F)F)nn23)S1	25 µg/mL (≈ 63.1 µM)
O=C1NC(=O)/C(=C/c2c(-c3ccc(Cl)cc3)nc3sc(C(F)(F)F)nn23)S1	3.12 µg/mL (≈ 7.24 µM)
O=C1NC(=O)/C(=C/c2c(-c3ccc(Br)cc3)nc3sc(C(F)(F)F)nn23)S1	25 µg/mL (≈ 52.6 µM)
O=C1NC(=S)S/C1=C\c1c(-c2ccc(Br)cc2)nc2sc(C(F)(F)F)nn12	3.12 µg/mL (≈ 6.35 µM)
O=C1NC(=O)/C(=C/c2c(-c3ccc(F)cc3)nc3sc(C(F)(F)F)nn23)S1	25 µg/mL (≈ 60.3 µM)
Cc1ccc(-c2nc3sc(C(F)(F)F)nn3c2/C=C2\SC(=O)NC2=O)cc1	25 µg/mL (≈ 60.9 µM)
COc1ccc(-c2nc3sc(C(F)(F)F)nn3c2/C=C2\SC(=O)NC2=O)cc1	25 µg/mL (≈ 58.6 µM)
O=C1NC(=O)/C(=C/c2c(-c3ccc([N+](=O)[O-])cc3)nc3sc(C(F)(F)F)nn23)S1	50 µg/mL (≈ 113 µM)
O=C1NC(=S)S/C1=C\c1c(-c2ccccc2)nc2sc(C(F)(F)F)nn12	6.25 µg/mL (≈ 15.2 µM)
O=C1NC(=S)S/C1=C\c1c(-c2ccc(Cl)cc2)nc2sc(C(F)(F)F)nn12	50 µg/mL (≈ 112 µM)
O=C1NC(=S)S/C1=C\c1c(-c2ccc(F)cc2)nc2sc(C(F)(F)F)nn12	6.25 µg/mL (≈ 14.5 µM)
Cc1ccc(-c2nc3sc(C(F)(F)F)nn3c2/C=C2\SC(=S)NC2=O)cc1	6.25 µg/mL (≈ 14.7 µM)
COc1ccc(-c2nc3sc(C(F)(F)F)nn3c2/C=C2\SC(=S)NC2=O)cc1	25 µg/mL (≈ 56.5 µM)
O=C1NC(=S)S/C1=C\c1c(-c2ccc([N+](=O)[O-])cc2)nc2sc(C(F)(F)F)nn12	50 µg/mL (≈ 109 µM)
O=C(O)CN1C(=O)/C(=C/c2c(-c3ccccc3)nc3sc(C(F)(F)F)nn23)SC1=S	6.25 µg/mL (≈ 13.3 µM)
O=C(O)CN1C(=O)/C(=C/c2c(-c3ccc(Cl)cc3)nc3sc(C(F)(F)F)nn23)SC1=S	3.12 µg/mL (≈ 6.18 µM)
O=C(O)CN1C(=O)/C(=C/c2c(-c3ccc(Br)cc3)nc3sc(C(F)(F)F)nn23)SC1=S	3.12 µg/mL (≈ 5.68 µM)
O=C(O)CN1C(=O)/C(=C/c2c(-c3ccc(F)cc3)nc3sc(C(F)(F)F)nn23)SC1=S	3.12 µg/mL (≈ 6.39 µM)
O=C(O)CN1C(=O)/C(=C/c2c(-c3ccc([N+](=O)[O-])cc3)nc3sc(C(F)(F)F)nn23)SC1=S	25 µg/mL (≈ 48.5 µM)
Cc1ccc(-c2nc3sc(C(F)(F)F)nn3c2/C=C2\SC(=S)N(CC(=O)O)C2=O)cc1	3.12 µg/mL (≈ 6.44 µM)
COc1ccc(-c2nc3sc(C(F)(F)F)nn3c2/C=C2\SC(=S)N(CC(=O)O)C2=O)cc1	1.56 µg/mL (≈ 3.12 µM)
NNC(=O)c1ccncc1 [ISONIAZID]	1.56 µg/mL (≈ 11.4 µM)
CO[C@H]1/C=C/O[C@@]2(C)Oc3c(C)c(O)c4c(O)c(c(/C=N/N5CCN(C)CC5)c(O)c4c3C2=O)NC(=O)/C(C)=C\C=C\[C@H](C)[C@H](O)[C@@H](C)[C@@H](O)[C@@H](C)[C@H](OC(C)=O)[C@@H]1C [RIFAMPIN]	0.78 µg/mL (≈ 0.948 µM)

— ChEMBL document CHEMBL1955755, “Novel imidazo[2,1-b][1,3,4]thiadiazole carrying rhodanine-3-acetic acid as potential antitubercular agents” (2012)
